Results reported in US20250120941A1, “Composition for Promoting the Assimilation of an Oligosaccharide” (MORINAGA MILK INDUSTRY CO., LTD., priority 2021, published 2025).

How the values were obtained:
[1] = test system: bifidobacterial strains in infant fecal samples (feces A, feces B); experiment: Fecal culture: bifidobacterial count by quantitative PCR (Test Example 3); type: cell-based, human infant; conditions: after seven hours of culture, group without tocopherols = 1
Method: The feces A and the feces B prepared in Test Example 1 described above were used as fecal samples.
To imitate the environment of the large intestine, a culture experiment was conducted by the following procedures. Bio Jr. 8 100 mLx8 culture apparatus (BJR-25NA1S-8M manufactured by Biott Corporation) was used, and the operations were according to the instructions of the device. The medium components except for the tocopherols and the oligosaccharides were dissolved in purified water and sterilized in an autoclave, and the tocopherols and the oligosaccharides which were dissolved in dimethyl sulfoxide (DMSO, FUJIFILM Wako Pure Chemical Corporation) and in purified water, respectively, and which were then sterilized with a filter were added to the mixture after the autoclave treatment. The culture temperature was 37° C., and the anaerobic condition was maintained during the culture period by blowing filter-sterilized CO2 into the culture vessels. After adjusting the pH to 7.0, 100 μL (10 mg in terms of feces) of the fecal samples, which were diluted with physiological saline, were added, and anaerobic culture was started. To imitate the pH in the large intestine of an infant, the pH was controlled by neutralizing with 1M Na2CO3 when the pH became lower than 5.5 during the culture period. The media were collected 7 hours after starting the culture and centrifuged at 8000 rpm for 3 min at 4° C., and the supernatants and the precipitates were collected.
Using GENE PREP STAR PI-480 automated isolation system (Kurabo Industries Ltd. Japan), DNA was extracted from the precipitates collected in (2). Using the extracted DNA as templates and using the primers of SEQ ID NO: 1 (ctcctggaaacgggtgg) and SEQ ID NO: 2 ([…]), quantitative PCR was conducted with Applied Bio systems 7500 Fast & 7500 Real-Time PCR System (manufactured by Thermo Fisher), and the bacterial counts of bifidobacterial strains were measured. The PCR conditions were 40 cycles of denaturation at 95° C. for 5 seconds, subsequent annealing at 55° C. for 20 seconds and elongation at 72° C. for 30 seconds.
The bacterial counts of bifidobacterial strains after seven hours of culture, which were measured by the quantitative PCR, are shown in Table 5. The bacterial counts are the relative values where the bacterial counts of the groups without the addition of the tocopherols are regarded as 1.

[2] = test system: intestinal bacteria of infant fecal sample (feces B); experiment: Fecal culture: oligosaccharide residual rate in culture supernatant (Test Example 1); type: cell-based, human infant
Method: Fecal samples were obtained from two healthy infants (feces A from an infant and feces B from an infant). The samples were collected immediately after the defecation and immediately moved to 10° C. or lower under an anaerobic condition. The collected feces were diluted with 10 times the amount of physiological saline within eight hours of the defecation and stored at −80° C. until use.
To imitate the environment of the large intestine, a culture experiment was conducted by the following procedures. Bio Jr. 8 100 mLx8 culture apparatus (BJR-25NA1S-8M manufactured by Biott Corporation) was used, and the operations were according to the instructions of the device. The medium components except for the tocopherols and the oligosaccharides were dissolved in purified water and sterilized in an autoclave. The tocopherols and the oligosaccharides which were dissolved in dimethyl sulfoxide (DMSO, FUJIFILM Wako Pure Chemical Corporation) and in purified water, respectively, and which were then sterilized with a filter were added to the medium after the autoclave treatment. The culture temperature was 37° C., and the anaerobic condition was maintained during the culture period by blowing filter-sterilized CO2 into the culture vessels. […]

## C[C@@H]1O[C@@H](O[C@H]2[C@H](O[C@H]3[C@H](O)[C@@H](O)C(O)O[C@@H]3CO)O[C@H](CO)[C@H](O)[C@@H]2O)[C@@H](O)[C@H](O)[C@@H]1O (stereo partly drawn) [Comparative Example 1, 2′-Fucosyllactose]
[1]; Feces A
  bifidobacterial Count (Relative Value): 1
[1]; Feces B
  bifidobacterial Count (Relative Value): 1
[2]; after 7-hr culture, YCFA medium, before culture = 100
  2′-FL Residual Rate: 114 mass %
[2]; after seven hours of culture
  assimilation of 2′-fucosyllactose (in words): remained in the supernatant without being assimilated

## CC(=O)N[C@H]1[C@H]([C@H](O)[C@H](O)CO)O[C@@](OC[C@H]2O[C@@H](O[C@H]3[C@H](O)[C@@H](O)[C@H](O)O[C@@H]3CO)[C@H](O)[C@@H](O)[C@H]2O)(C(=O)O)C[C@@H]1O [Comparative Example 9, 6′-Sialyllactose]
[1]; Feces A
  bifidobacterial Count (Relative Value): 1
[1]; Feces B
  bifidobacterial Count (Relative Value): 1
